Measurements as given in paper PMC4515825, “Molecular mechanisms of the non-coenzyme action of thiamin in brain: biochemical, structural and pathway analysis” (Scientific Reports, 2015).

Key:
pyridoxal kinase (PdxK) [1] = biological target: T1, pyridoxal kinase (PdxK) (Homo sapiens, UniProt O00764); experiment: steady-state enzyme kinetics ([…] nm), Lineweaver-Burk and secondary plots; type: biochemical; design: wild-type human recombinant
T1 sequence (O00764 1-312): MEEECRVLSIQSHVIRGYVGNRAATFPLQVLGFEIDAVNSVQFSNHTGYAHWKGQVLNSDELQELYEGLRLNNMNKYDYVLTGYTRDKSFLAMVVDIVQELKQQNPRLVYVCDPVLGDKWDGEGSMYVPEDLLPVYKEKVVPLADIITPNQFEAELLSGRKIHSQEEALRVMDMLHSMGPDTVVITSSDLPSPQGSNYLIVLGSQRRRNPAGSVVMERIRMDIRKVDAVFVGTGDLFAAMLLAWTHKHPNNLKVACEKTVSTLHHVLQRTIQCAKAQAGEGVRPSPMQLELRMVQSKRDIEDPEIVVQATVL

pyridoxal kinase (PdxK) [2] = biological target: T1, pyridoxal kinase (PdxK); experiment: enzyme activity assay; type: biochemical; design: human recombinant

Row | Ki (pyridoxal kinase (PdxK) [1]) [µM] | SMILES | enzyme activity assay (pyridoxal kinase (PdxK) [2])
1 | 3300 | Cc1ncc(C[n+]2csc(CCOP(=O)([O-])OP(=O)(O)O)c2C)c(N)n1 [thiamin diphosphate] | –
2 | – | CCCCCCCCCCOC(=O)C[n+]1csc(CCO)c1C [DMHT, 3-decyloxycarbonylmethyl-4-methyl-5-(2-hydroxyethyl) thiazolium] | Figure 2B shows that both compounds affected PdxK activity, supporting the direct interaction of the enzyme
3 | 2200 | Cc1ncc(C[n+]2csc(CCO)c2C)c(N)n1 [thiamin] | –
